Laboratory results published in publication PMC8508980, “Design, Synthesis and Anticancer Profile of New 4-(1H-benzo[d]imidazol-1-yl)pyrimidin-2-amine-Linked Sulfonamide Derivatives with V600EBRAF Inhibitory Effect” (International Journal of Molecular Sciences, 2021).

Assays:
[1] = system: HT29; assay: NCI 60 cell line screen; type: cell-based, human; settings: for activity at 10 µM: Homo sapiens, HT-29, HT29, Colon Cancer, read-out: Percent growth
Procedure: (§1) Anticancer profiling over a panel of 60 cancer cell lines was carried out at the National Cancer Institute (NCI), Bethesda, Maryland, USA, https://dtp.cancer.gov/discovery_development/nci-60/methodology.htm (Last visit 22 September 2021), using the standard procedure (detailed procedure is located in the Supplementary Information page 50 s).
(§2) NCI standard procedure for 60 cell lines assay
(§3) The human tumor cell lines of the cancer screening panel are grown in RPMI 1640 mediu m containing 5% fetal bovine serum and 2 mM L-glutamine. For a typical screening experiment, cells are inoculated into 96 well microtiter plates in 100 μL at plating densities ranging from 5,000 to 40,000 cells/well depending on the doubling time of individual cell lines. After cell inoculation, the microtiter plates are incubated at 37° C, 5 % CO2, 95 % air and 100 % relative humidity for 24 h prior to addition of experimental drugs.
(§4) After 24 h, two plates of each cell line are fixed in situ with TCA, to represent a measurement of the cell population for each cell line at the time of drug addition (Tz). Experimental drugs are solubilized in dimethyl sulfoxide at 400-fold the desired final maximum test concentration (10 µM) and stored frozen prior to use. At the time of drug addition, an aliquot of frozen concentrate is thawed and diluted to twice the desired final maximum test concentration with co mp lete medium containing 50 μg/ml gentamicin. Additional four, 10-fold or ½ log serial dilutions are made to provide a total of five drug concentrations plus control. Aliquots of 100 μl of these different drug dilutions are added to the appropriate microtiter wells already containing 100 μl of medium, resulting in the required final drug concentrations.
(§5) Following drug addition, the plates are incubated for an additional 48 h at 37°C, 5 % CO2, 95 % air, and 100 % relative humidity. For adherent cells, the assay is terminated by the addition of cold TCA. Cells are fixed in situ by the gentle addition of 50 μl of cold 50 % (w/v) TCA (final concentration, 10 % TCA) and incubated for 60 minutes at 4°C. The supernatant is discarded, and the plates are washed five times with tap water and air dried. Sulforhodamine B (SRB) solution (100 μl) at 0.4 % (w/v) in 1 % acetic acid is added to each well, and plates are incubated for 10 minutes at room temperature. After staining, unbound dye is removed by washing five times with 1 % acetic acid and the plates are air dried. Bound stain is subsequently solubilized with 10 mM trizma base, and the absorbance is read on an automated plate reader at a wavelength of 515 nm. For suspension cells, the methodology is the same except that the assay is terminated by fixing settled cells at the bottom of the wells by g ently adding 50 μl of 80 % TCA (final concentration, 16 % TCA). Using the seven absorbance measurements [time zero, (Tz), control growth, (C), and test growth in the presence of drug at the five concentration levels (Ti)], the percentage growth is calculated at each of the drug concentrations levels. Percentage growth inhibition is calculated as:
(§6) [(Ti-Tz)/(C-Tz)] x 100 for concentrations for which Ti>/=Tz
(§7) [(Ti-Tz)/Tz] x 100 for concentrations for which Ti<Tz.
(§8) Three dose response parameters are calculated for each experimental agent. Growth inhibition of […]
(§9) resulting in a 50% reduction in the net protein increase (as measured by SRB staining) in control cells during the drug incubation. The drug concentration resulting in total growth inhibition […]
(§10) (TGI) is calculated from Ti = Tz.

[2] = system: HOP-92; assay: NCI 60 cell line screen; type: cell-based, human; settings: for activity at 10 µM: Homo sapiens, HOP-92, Non-Small Cell Lung Cancer, read-out: Percent growth
Procedure: as §1, §2, §3, §4, §5, §6, §7, §8, §9, §10

[3] = system: RPMI-8226; assay: NCI 60 cell line screen; type: cell-based, human; settings: Homo sapiens; RPMI-8226, Leukemia; read-out: Percent growth
Procedure: as §1, §2, §3, §4, §5, §6, §7, §8, §9, §10

[4] = system: PC-3; assay: NCI 60 cell line screen; type: cell-based, human; settings: Homo sapiens; PC-3, Prostate Cancer; read-out: Percent growth
Procedure: as §1, §2, §3, §4, §5, §6, §7, §8, §9, §10

[5] = system: CAKI-1; assay: NCI 60 cell line screen; type: cell-based, human; settings: for activity at 10 µM: Homo sapiens, CAKI-1, Renal Cancer, read-out: Percent growth
Procedure: as §1, §2, §3, §4, §5, §6, §7, §8, §9, §10

[6] = system: U251; assay: NCI 60 cell line screen; type: cell-based, human; settings: Homo sapiens, U-251; U251, CNS-Cancer; read-out: Percent growth
Procedure: as §1, §2, §3, §4, §5, §6, §7, §8, §9, §10

[7] = system: SK-MEL-5; assay: NCI 60 cell line screen; type: cell-based, human; settings: for activity at 10 µM: Homo sapiens, SK-MEL-5, Melanoma, read-out: Percent growth; for percent inhibition: SK-MEL-5, NCI-60 heat map analysis
Procedure: as §1, §2, §3, §4, §5, §6, §7, §8, §9, §10

[8] = system: SF-295; assay: NCI 60 cell line screen; type: cell-based, human; settings: Homo sapiens; SF-295, CNS-Cancer; read-out: Percent growth
Procedure: as §1, §2, §3, §4, §5, §6, §7, §8, §9, §10

[9] = system: RXF 393; assay: NCI 60 cell line screen; type: cell-based, human; settings: for activity at 10 µM: Homo sapiens, RXF 393, Renal Cancer, read-out: Percent growth
Procedure: as §1, §2, §3, §4, §5, §6, §7, §8, §9, §10

[10] = system: NCI-H460; assay: NCI 60 cell line screen; type: cell-based, human; settings: Homo sapiens; NCI-H460, Non-Small Cell Lung Cancer; read-out: Percent growth
Procedure: as §1, §2, §3, §4, §5, §6, §7, §8, §9, §10

[11] = system: K-562; assay: NCI 60 cell line screen; type: cell-based, human; settings: for activity at 10 µM: Homo sapiens, K562, K-562, Leukemia, read-out: Percent growth
Procedure: as §1, §2, §3, §4, §5, §6, §7, §8, §9, §10

[12] = system: SK-MEL-5 cells; assay: Antiproliferative MTT assay; type: cell-based; settings: Homo sapiens, 48 h, mean ± S.D. of two experiments
Procedure: (§11) The effect of final target compounds over A375 and SK-MEL-5 was performed using reported procedures (detailed procedure is located in the Supplementary Information page 51s). […]
(§12) Evaluation of the Antiproliferative Activity Against A375 and SK-MEL-5
(§13) A375 and SK-MEL-5 cells were purchased from American Type Culture Collection (ATCC, Ro ckv ille, MD, USA) and maintained in Dulbecco’s modified eagle medium (DMEM, Welgene, Daegu, Republic of Korea) supplemented with 10% fetal bovine serum (FBS, Welgene, Daegu, Republic of Korea) and 1% penicillin/streptomycin (Welgene, Daegu, Republic of Korea) in a hu midified atmo sphere with 5% CO2 at 37 °C. Both cells were taken from culture substrate with 0.05% trypsin-0.02% EDTA and plated at a density of 5 × 10^3 cells/well in 96 well plates and then incubated at 37 °C fo r 24 h in a hu midified atmo sphere with 5% CO2 prior to treatment with various concentrations (3-fold serial dilution, 12 points) of the tested compounds. The cells were incubated for 48 h after treatment with the test compounds. The cell viability was assessed by the conventional 3-(4,5-dimethylthiazol-2-yl)-2,5-diphenyltetrazolium bromide (MTT) reduction assay. MTT assays were carried out with CellTiter 96® (Promega) according to the manufacturer’s instructions. The absorbance at 590 nm was recorded using EnVision 2103 (Perkin Elmer; Bo ston , MA, USA). The IC50 values were calculated using GraphPad Prism 4.0

[13] = system: A375 cells; assay: Antiproliferative MTT assay; type: cell-based; settings: Homo sapiens, A-375, 48 h, mean ± S.D. of two experiments
Procedure: as §11, §12, §13

Row | SMILES | activity at 10 µM [1] [%] | activity at 10 µM [2] [%] | activity at 10 µM [3] [%] | activity at 10 µM [4] [%] | activity at 10 µM [5] [%] | activity at 10 µM [6] [%] | activity at 10 µM [7] [%] | percent inhibition [7] [%] | activity at 10 µM [8] [%] | activity at 10 µM [9] [%] | activity at 10 µM [10] [%] | activity at 10 µM [11] [%] | IC50 [12] [µM] | IC50 [13] [µM] | percent inhibition ([1]; HT29, NCI-60 heat map analysis) | percent inhibition ([2]; HOP-92, NCI-60 heat map analysis) | percent inhibition ([5]; CAKI-1, NCI-60 heat map analysis) [%] | percent inhibition ([9]; RXF 393, NCI-60 heat map analysis) [%] | percent inhibition ([11]; K-562, NCI-60 heat map analysis)
1 | O=S(=O)(NCCCNc1nccc(-n2cnc3ccccc32)n1)c1ccc(F)cc1 [12i, N-(3-((4-(1H-benzo [d]imidazol-1-yl)pyrimidin-2-yl)amino)propyl)-4-fluorobenzenesulfonamide] | 92.8 | 87.9 | 57.8 | 69.3 | 71 | 93.8 | 2.63 | 97 | 70.6 | 163 | 79.7 | 37.2 | 2.36 ± 0.21 | 1.95 ± 0.13 |  |  |  |  | 
2 | O=S(=O)(NCCCNc1nccc(-n2cnc3ccccc32)n1)c1ccc(Cl)cc1 [12j, N-(3-((4-(1H-benzo [d]imidazol-1-yl)pyrimidin-2-yl)amino)propyl)-4-chloro benzenesulfonamide] | 104 | 94.6 | 78 | 92.5 | 94.5 | 100 | 76.2 |  | 97.8 | 124 | 99.8 | 79.2 | 12.9 ± 0.72 | 10.4 ± 0.24 |  |  |  |  | 
3 | O=S(=O)(NCCCNc1nccc(-n2cnc3ccccc32)n1)c1ccc(Br)cc1 [12k, N-(3-((4-(1H-benzo [d]imidazol-1-yl)pyrimidin-2-yl)amino)propyl)-4-bromo benzenesulfonamide] | 103 | 79.3 | 71.1 | 84.7 | 84.5 | 96.6 | 53.5 | 40 | 86.5 | 111 | 94.3 | 73.5 | 13.5 ± 0.39 | 12 ± 0.47 |  |  |  |  | 
4 | O=S(=O)(NCCCNc1nccc(-n2cnc3ccccc32)n1)c1ccc(C(F)(F)F)cc1 [12l, N-(3-((4-(1H-benzo [d]imidazol-1-yl)pyrimidin-2-yl)amino)propyl)-4-(trifluoromethyl) benzenesulfonamide] | 54.6 | 56 | 55.6 | 59 | 51.4 | 73.2 | 29.9 | 70 | 69.8 | 43.8 | 79.3 | 33.9 | 2.02 ± 0.09 | 1.85 ± 0.11 | more than 40% | around 40% | 49 | 57 | 
5 | COc1ccc(S(=O)(=O)NCCCNc2nccc(-n3cnc4ccccc43)n2)cc1 [12m, N-(3-((4-(1H-benzo [d]imidazol-1-yl)pyrimidin-2-yl)amino)propyl)-4-methoxy benzenesulfonamide] | 99.7 | 75.8 | 78.6 | 89.7 | 68.8 | 94.5 | 70.1 |  | 90.5 | 80.6 | 97.3 | 78.8 | 14.6 ± 0.71 | 13.1 ± 0.27 |  |  |  |  | 
6 | O=S(=O)(NCCCNc1nccc(-n2cnc3ccccc32)n1)c1cccc2ccccc12 [12n, N-(3-((4-(1H-benzo [d]imidazol-1-yl)pyrimidin-2-yl)amino)propyl)naphthalene-1-sulfonamide] | 96.3 | 80.2 | 69.7 | 66.7 | 60.5 | 90.8 | 58.8 | 40 | 81.2 | 105 | 89.8 | 67.6 | 17.9 ± 0.62 | 16.9 ± 0.81 |  |  |  |  | around 30%
